{"source": "paper PMC9769921", "about": "“Characteristics of the GlnH and GlnX Signal Transduction Proteins Controlling PknG-Mediated Phosphorylation of OdhI and 2-Oxoglutarate Dehydrogenase Activity in Corynebacterium glutamicum” (Microbiology Spectrum, 2022)", "molecules": {"B1": {"name": "OdhI (natural protein)", "chain": "MSDNNGTPEPQVETTSVFRADLLKEMESSTGTAPASTGAENLPAGSALLVVKRGPNAGARFLLDQPTTTAGRHPESDIFLDDVTVSRRHAEFRINEGEFEVVDVGSLNGTYVNREPRNAQVMQTGDEIQIGKFRLVFLAGPAE"}, "B2": {"name": "OdhI: 15-kDa forkhead-associated (FHA) domain-containing protein of C. glutamicum that inhibits ODH; purified, untagged (protein)", "chain": "B1 chain", "modifications": "left off: His10, N-terminal, cleaved"}, "B3": {"name": "OdhI-R87P (natural protein)", "chain": "B1 chain with R87P"}, "B4": {"name": "OdhI-R87A (natural protein)", "chain": "B1 chain with R87A"}}, "key": {"His10-GlnHΔSP (GlnH)": {"biological_target": "His10-GlnHΔSP (GlnH) (Corynebacterium glutamicum, UniProt Q8NM30)", "sequence (Q8NM30 entry or part of it, stated change not applied)": "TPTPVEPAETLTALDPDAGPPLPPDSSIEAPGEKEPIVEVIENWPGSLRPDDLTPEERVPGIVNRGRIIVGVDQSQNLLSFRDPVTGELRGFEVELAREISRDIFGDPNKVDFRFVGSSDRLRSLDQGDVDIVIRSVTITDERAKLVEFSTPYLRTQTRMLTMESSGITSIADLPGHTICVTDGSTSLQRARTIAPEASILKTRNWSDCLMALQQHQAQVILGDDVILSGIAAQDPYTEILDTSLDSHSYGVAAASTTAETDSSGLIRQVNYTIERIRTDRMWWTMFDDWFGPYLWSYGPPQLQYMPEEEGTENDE", "test": "Isothermal titration calorimetry with His10-GlnHΔSP", "format": "binding", "conditions": "for binding to His10-GlnHΔSP / mean observed enthalpy change: ITC, 40 mM HEPES pH 7, 100 mM KCl; for binding to His10-GlnHΔSP: 10 mM MgCl2; for mean observed enthalpy change: 10 mM MgCl2, 25°C", "text": "Based on the similarity to the glutamine-binding protein GlnH of E. coli, which is part of the ABC transporter GlnHPQ ([28], [29]), the protein encoded by cg3045 in the C. glutamicum genome was initially annotated as a putative glutamine binding protein ([20]). […] To characterize the ligand binding properties of GlnH, a soluble protein version lacking the N-terminal signal peptide and the lipobox motif was overproduced in E. coli BL21(DE3) using the expression plasmid pET-TEV-glnHΔSP and purified by Ni^2+-chelate affinity chromatography. The His-tagged protein was used for interaction studies with different potential ligands using isothermal titration calorimetry (ITC). Based on the annotation, L-glutamine was first tested as a ligand, but no binding to His10-GlnHΔSP was observed under the conditions used (40 mM HEPES, pH 7, 100 mM KCl, 10 mM MgCl2). In contrast, L-aspartate and L-glutamate served as ligands for His10-GlnHΔSP, although with moderate affinity. […] In both cases, binding was exothermic with mean observed enthalpy changes of −18.5 ± 4.3 kJ/mol for L-aspartate and −17.5 ± 5.0 kJ/mol for L-glutamate. […] In Fig. 6, representative ITC experiments are shown for the five ligands tested.\nPurified His10-GlnHΔSP was dialyzed overnight against a 500-fold excess of dialysis buffer (40 mM HEPES, 100 mM KCl, 10 mM MgCl2, pH 7.0). Stock solutions of the potential ligands L-aspartic acid, L-glutamic acid, L-asparagine, L-glutamine, and 2-oxoglutarate were prepared in dialysis buffer, and the pH was adjusted to pH 7.0 using KOH. ITC measurements were performed with a MicroCal PEAQ-ITC instrument (Malvern Panalytical, Malvern, Great Britain) operated at 25°C. Protein concentrations between 30 μM and 75 μM were used together with ligand concentrations of 7.5 mM to 50 mM. Prior to being filled with 300 μL protein solution, the measuring cell was rinsed with dialysis buffer, while the syringe was filled with 75 μL ligand solution. An ITC run was started with an initial injection of 0.4 μL followed by 12 injections of 3 μL each. In addition, control experiments with ligand solution titrated into the dialysis buffer were performed. The data were analyzed using MicroCal ITC analysis software (Malvern Panalytical), and a fixed 1:1 binding stoichiometry was assumed to determine the binding affinity."}, "C. glutamicum": {"test_system": "C. glutamicum", "set-up": "method as in PMID 15870446", "conditions": "cited from earlier work"}, "M. tuberculosis GlnH": {"biological_target": "M. tuberculosis GlnH", "set-up": "method as in PMID 30065086", "conditions": "cited from earlier work"}, "GlnH of C. glutamicum [1]": {"biological_target": "GlnH of C. glutamicum", "set-up": "method as in PMID 30065086", "conditions": "change in intrinsic tryptophan fluorescence; cited from earlier work"}, "GlnH of C. glutamicum [2]": {"test_system": "GlnH of C. glutamicum", "set-up": "method as in PMID 30065086", "conditions": "cited from earlier work"}, "His10-GlnHcore (GlnH)": {"biological_target": "His10-GlnHcore (GlnH) (Corynebacterium glutamicum, UniProt Q8NM30)", "sequence (Q8NM30 entry or part of it)": "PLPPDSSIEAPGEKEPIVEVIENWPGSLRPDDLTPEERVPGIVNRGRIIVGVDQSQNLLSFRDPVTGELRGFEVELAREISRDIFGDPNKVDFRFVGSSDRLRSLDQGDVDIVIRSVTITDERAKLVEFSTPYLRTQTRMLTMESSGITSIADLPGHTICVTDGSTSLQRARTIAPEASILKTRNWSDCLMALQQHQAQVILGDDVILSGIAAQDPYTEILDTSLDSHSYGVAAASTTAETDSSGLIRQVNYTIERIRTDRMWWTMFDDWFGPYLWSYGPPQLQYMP", "test": "Intrinsic tryptophan fluorescence ligand binding, parental His10-GlnHcore"}, "[3]": {"biological_target": "T1, OdhA subunit of the 2-oxoglutarate dehydrogenase complex (ODH) (Corynebacterium glutamicum (endogenous in C. glutamicum ΔodhI)) (UniProt Q8NRC3)", "T1 sequence": "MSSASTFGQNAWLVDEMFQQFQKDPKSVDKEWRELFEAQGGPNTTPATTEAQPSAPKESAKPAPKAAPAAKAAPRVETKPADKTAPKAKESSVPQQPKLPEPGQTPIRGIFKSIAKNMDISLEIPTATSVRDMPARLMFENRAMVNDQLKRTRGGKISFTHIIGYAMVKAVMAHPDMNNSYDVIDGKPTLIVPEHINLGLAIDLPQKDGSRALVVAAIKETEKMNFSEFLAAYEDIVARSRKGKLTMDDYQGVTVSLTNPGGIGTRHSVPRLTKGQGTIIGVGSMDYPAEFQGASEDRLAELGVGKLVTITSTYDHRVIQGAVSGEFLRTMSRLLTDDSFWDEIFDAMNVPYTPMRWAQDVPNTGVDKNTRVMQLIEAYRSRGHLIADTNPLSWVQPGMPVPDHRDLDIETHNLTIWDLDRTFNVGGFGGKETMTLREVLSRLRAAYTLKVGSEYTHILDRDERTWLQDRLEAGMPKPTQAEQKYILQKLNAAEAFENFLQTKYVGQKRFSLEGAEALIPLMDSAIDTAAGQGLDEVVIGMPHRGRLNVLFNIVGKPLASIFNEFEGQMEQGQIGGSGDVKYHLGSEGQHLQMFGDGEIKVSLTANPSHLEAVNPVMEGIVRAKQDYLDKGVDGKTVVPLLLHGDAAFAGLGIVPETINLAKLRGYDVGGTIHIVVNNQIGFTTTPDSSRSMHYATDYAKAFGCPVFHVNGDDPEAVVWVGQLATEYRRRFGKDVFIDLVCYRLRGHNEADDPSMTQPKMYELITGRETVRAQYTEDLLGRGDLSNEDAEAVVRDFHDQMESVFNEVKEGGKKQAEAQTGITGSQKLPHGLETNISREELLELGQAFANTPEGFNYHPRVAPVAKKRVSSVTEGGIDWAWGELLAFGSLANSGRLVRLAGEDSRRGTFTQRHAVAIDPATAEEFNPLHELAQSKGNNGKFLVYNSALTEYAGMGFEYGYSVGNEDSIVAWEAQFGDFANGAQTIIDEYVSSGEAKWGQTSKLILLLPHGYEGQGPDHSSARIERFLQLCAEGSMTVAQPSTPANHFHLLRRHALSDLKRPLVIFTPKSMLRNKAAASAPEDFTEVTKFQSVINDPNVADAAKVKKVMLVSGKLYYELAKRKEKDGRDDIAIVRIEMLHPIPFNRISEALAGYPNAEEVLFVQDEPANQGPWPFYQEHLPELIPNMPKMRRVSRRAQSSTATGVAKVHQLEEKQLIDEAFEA"}, "[4]": {"biological_target": "2-oxoglutarate dehydrogenase complex (ODH) (Corynebacterium glutamicum, UniProt Q8NRC3)", "sequence (Q8NTE1 whole entry, one chain of several)": "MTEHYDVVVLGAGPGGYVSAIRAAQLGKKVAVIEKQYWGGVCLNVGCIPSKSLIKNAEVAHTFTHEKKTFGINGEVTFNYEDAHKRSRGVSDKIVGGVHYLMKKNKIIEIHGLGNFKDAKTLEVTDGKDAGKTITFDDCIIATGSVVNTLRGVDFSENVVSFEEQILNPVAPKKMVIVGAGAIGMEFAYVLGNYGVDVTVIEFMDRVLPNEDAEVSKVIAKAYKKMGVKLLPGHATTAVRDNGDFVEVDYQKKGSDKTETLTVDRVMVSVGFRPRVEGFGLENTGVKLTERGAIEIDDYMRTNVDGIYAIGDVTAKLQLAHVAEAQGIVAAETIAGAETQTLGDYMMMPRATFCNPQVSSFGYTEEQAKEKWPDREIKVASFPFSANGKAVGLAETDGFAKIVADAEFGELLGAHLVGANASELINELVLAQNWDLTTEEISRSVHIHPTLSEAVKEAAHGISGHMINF", "sequence (Q8NNJ2 whole entry, one chain of several, further chain)": "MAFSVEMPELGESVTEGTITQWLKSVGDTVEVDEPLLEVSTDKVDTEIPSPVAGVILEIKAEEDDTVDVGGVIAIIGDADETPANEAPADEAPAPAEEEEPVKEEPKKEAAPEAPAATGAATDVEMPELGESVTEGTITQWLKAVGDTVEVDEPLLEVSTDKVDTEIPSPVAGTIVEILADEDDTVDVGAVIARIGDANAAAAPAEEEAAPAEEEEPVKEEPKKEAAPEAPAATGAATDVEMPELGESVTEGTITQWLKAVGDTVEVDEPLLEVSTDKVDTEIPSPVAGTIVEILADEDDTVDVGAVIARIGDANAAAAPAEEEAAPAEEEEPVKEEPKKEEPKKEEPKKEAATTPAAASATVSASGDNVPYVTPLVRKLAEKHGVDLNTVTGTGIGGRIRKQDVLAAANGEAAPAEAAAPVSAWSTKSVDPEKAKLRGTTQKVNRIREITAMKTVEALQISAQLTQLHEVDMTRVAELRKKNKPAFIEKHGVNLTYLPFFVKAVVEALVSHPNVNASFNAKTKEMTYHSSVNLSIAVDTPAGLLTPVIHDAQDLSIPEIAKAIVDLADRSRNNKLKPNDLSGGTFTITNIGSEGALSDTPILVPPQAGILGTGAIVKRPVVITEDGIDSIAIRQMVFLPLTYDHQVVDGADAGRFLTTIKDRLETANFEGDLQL", "test": "ODH activity of cell-free extracts of C. glutamicum ΔodhI with added OdhI variants (photometric, NADH formation)", "conditions": "100% = 135 ± 12 nmol min^−1 (mg protein)^−1 without added OdhI", "procedure": "Determination of the ODH activity in the presence of different OdhI variants was carried out using a photometric assay following NADH formation as described previously ([6], [8])."}}, "note": "Changes are numbered by the printed parent chain. Names and notes keep the numbering of the source. Values joined by “and” are separate entries in the source; they are usually repeats but may differ in a detail not shown here. Identical values can stand only once.", "data": [{"molecule": "O=C(O)CCC(=O)C(=O)O", "note": "[2-oxoglutarate]", "values": [{"measurement": "binding to His10-GlnHΔSP", "setting": "His10-GlnHΔSP (GlnH)", "result": "no interaction"}]}, {"molecule": "CC[C@@H](CO)NCCN[C@@H](CC)CO", "note": "[Ethambutol]", "values": [{"measurement": "effect on glutamate secretion", "setting": "C. glutamicum", "result": "trigger glutamate secretion"}]}, {"molecule": "NC(=O)C[C@H](N)C(=O)O", "note": "[L-asparagine]", "values": [{"measurement": "binding to His10-GlnHΔSP", "setting": "His10-GlnHΔSP (GlnH)", "result": "no interaction"}]}, {"molecule": "N[C@@H](CC(=O)O)C(=O)O", "note": "[L-aspartate]", "values": [{"measurement": "Kd", "setting": "His10-GlnHΔSP (GlnH)", "result": "264 ± 14.6", "unit": "µM"}, {"measurement": "mean observed enthalpy change", "setting": "His10-GlnHΔSP (GlnH)", "result": "-18.5 ± 4.3", "unit": "kJ/mol"}, {"measurement": "Kd", "setting": "M. tuberculosis GlnH", "result": "4.8 ± 0.6", "unit": "µM"}, {"measurement": "Kd", "setting": "GlnH of C. glutamicum [1]", "result": "0.55 ± 0.09", "unit": "mM"}, {"measurement": "effect on thermal stability of GlnH", "setting": "GlnH of C. glutamicum [2]", "result": "increased the thermal stability"}, {"measurement": "Kd", "setting": "His10-GlnHcore (GlnH)", "result": 242, "unit": "µM"}]}, {"molecule": "N[C@@H](CCC(=O)O)C(=O)O", "note": "[L-glutamate]", "values": [{"measurement": "Kd", "setting": "His10-GlnHΔSP (GlnH)", "result": 1260, "unit": "µM"}, {"measurement": "mean observed enthalpy change", "setting": "His10-GlnHΔSP (GlnH)", "result": "-17.5 ± 5.0", "unit": "kJ/mol"}, {"measurement": "Kd", "setting": "M. tuberculosis GlnH", "result": "15.2 ± 5.7", "unit": "µM"}, {"measurement": "Kd", "setting": "GlnH of C. glutamicum [1]", "result": 2.06, "unit": "mM"}, {"measurement": "effect on thermal stability of GlnH", "setting": "GlnH of C. glutamicum [2]", "result": "increased the thermal stability"}, {"measurement": "Kd", "setting": "His10-GlnHcore (GlnH)", "result": 1460, "unit": "µM"}]}, {"molecule": "NC(=O)CC[C@H](N)C(=O)O", "note": "[L-glutamine]", "values": [{"measurement": "binding to His10-GlnHΔSP", "setting": "His10-GlnHΔSP (GlnH)", "result": "no binding"}]}, {"molecule": "B1", "values": [{"measurement": "residual ODH activity of cell-free extracts of C. glutamicum ΔodhI after adding 0.38 nM or 1.9 nM purified OdhI (activity without OdhI = 100%)", "setting": "[3]", "result": 3, "unit": "%"}]}, {"molecule": "B2", "values": [{"measurement": "relative specific ODH activity (residual activity)", "setting": "[4]; 0.38 nM protein added", "result": 18.6, "unit": "%"}, {"measurement": "relative specific ODH activity (residual activity)", "setting": "[4]; 1.9 nM protein added", "result": "3% and 3.1%"}]}, {"molecule": "B3", "values": [{"measurement": "residual ODH activity of cell-free extracts of C. glutamicum ΔodhI after adding 0.38 nM or 1.9 nM purified OdhI-R87P (activity without OdhI = 100%)", "setting": "[3]", "result": "> 50", "unit": "%"}, {"measurement": "relative specific ODH activity (residual activity)", "setting": "[4]; 0.38 nM protein added", "result": 83.1, "unit": "%"}]}, {"molecule": "B4", "values": [{"measurement": "residual ODH activity of cell-free extracts of C. glutamicum ΔodhI after adding 0.38 nM or 1.9 nM purified OdhI-R87A (activity without OdhI = 100%)", "setting": "[3]", "result": "> 50", "unit": "%"}, {"measurement": "relative specific ODH activity (residual activity)", "setting": "[4]; 0.38 nM protein added", "result": 68.9, "unit": "%"}]}]}
